# According to patent US20200208111A1, “GENOME-EDITED NK CELL AND METHODS OF MAKING AND USING” (REGENTS OF THE UNIVERSITY OF MINNESOTA, priority 2016, published 2020):
# Columns and labels:
# [1] = test system: TIGIT; assay: TIGIT expression in knockout NK cells by flow cytometry; format: cell-based, human; conditions: with Cas9 mRNA, compared to matched donor samples electroporated with Cas9 mRNA alone; five days after electroporation; n=2 donors
# Protocol: 3×10^6 NK cells from two donors (donors 407 and 613) stimulated with aAPCs were electroporated using the optimized NEON electroporation conditions with 10 μg Cas9 mRNA and 10 μg gRNA. Five days after electroporation, cells were harvested and stained with antibodies for CD56, CD3, TIGIT, and SYTOX Blue viability dye. Cells were gated on single cells (FSC-H vs FSC-A), CD56^+, CD3^−, SYTOX Blue^−, and TIGIT^+. TIGIT expression in knockout cells was compared to matched donor samples electroporated with Cas9 mRNA alone.
# [2] = test system: PD1; assay: CRISPR/Cas9 gene editing at PD1 in primary human NK cells, Surveyor nuclease activity assay; format: cell-based; conditions: chemically modified gRNA and Cas9 mRNA; 72 hours post electroporation
# Protocol: For FIGS. 1-7 (as appropriate), activity of the gRNAs was quantified by a Surveyor Digest, gel electrophoresis, and densitometry (Guschin et al., Methods Mol. Biol., 2010, 649:247-256).
# Unstimulated or stimulated CD3^−CD56^+ NK cells were nucleofected using the AMAXA nucleofection system (Human Macrophage Kit, Lonza Group, Basel, Switzerland). Cells were counted and resuspended at a density of 3.0×10^6 cells in 100 μL of Resuspension buffer, and the following reagents were added to the cells and buffer prior to nucleofection: 10 μg, 15 μg, or 20 μg mRNA Cas9 (TriLink. BioTechnologies, San Diego, Calif.), and 10 μg, 20 μg, or 30 μg gRNA (TriLink BioTechnologies, San Diego, Calif.). Three days after nucleofection, cells were harvested and gRNA activity was measured as above.
# [3] = test system: CISH; assay: CISH expression in NK cells after electroporation, protein lysates on Wes machine with CISH-specific antibody; format: cell-based, human; conditions: with Cas9 mRNA, compared to matched donor samples electroporated with Cas9 mRNA alone; five days after electroporation; n=3 donors
# Protocol: NK cells (3×10^6) from three donors (donors 070, 380, and 437) stimulated with aAPCs were electroporated using the optimized NEON electroporation conditions with 10 μg Cas9 mRNA and 10 μg CISH gRNA. Five days after electroporation, cells were harvested and protein lysates were run with a CISH-specific antibody on a Wes machine (Protein Simple, San Jose, Calif.) and CISH expression (area under peak) normalized to ([…] was analyzed using Compass Software (Protein Simple, Bio-Techne, Minneapolis, Minn.). Results are shown in FIG. 9.
substance,measurement,setting,value
"TIGIT gRNA: guide RNA GACCUGGGUCACUUGUGCCG (SEQ ID NO: 13) (listed as RNA, chemistry not given here)",TIGIT expression,[1],decreased
"PD1 gRNA: guide RNA CCUGCUCGUGGUGACCGAAG (SEQ ID NO: 11), chemically modified (chemically modified, pattern not given here)",Gene modification of NK cells,[2],gene modification of NK cells was induced
"CISH gRNA: guide RNA GGGUUCCAUUACGGCCAGCG (SEQ ID NO: 14) (listed as RNA, chemistry not given here)",CISH expression,[3],decreased
